The nature of data set [1]: Hepatic oxidative stress markers (GSH, CAT, SOD, MDA).
Procedure: All animals were maintained under conventional laboratory conditions, including a controlled temperature of 22 ± 2 °C and a 12 hour light/dark photoperiod, with continuous access to standard pellet chow and water. On day 11, following the final treatment, ascitic fluid was collected from the peritoneal cavity using heparinized syringes for EAC cell viability and count analysis. Blood samples were collected under light ether anesthesia via the retro-orbital venous plexus and centrifuged at 3000 rpm for 10 minutes. The resulting serum was separated and stored at −20 °C for biochemical analysis. Additionally, liver and kidney tissues were excised from each animal for further evaluation. Each organ was divided into two parts: one portion was rinsed with ice-cold phosphate-buffered saline (PBS, pH 7.4) and stored at −20 °C for preparation of tissue homogenates used in biochemical assays. The second portion was fixed in 10% neutral buffered formalin for histopathological examination to assess tissue morphology and damage.[96,97]
Liver tissues were homogenized in an appropriate lysis buffer and centrifuged to obtain the supernatant. Samples were loaded into ELISA plates pre-coated with catalase-specific antibodies and incubated at 37 °C. After washing steps, a biotinylated detection antibody and horseradish peroxidase (HRP)-conjugated secondary antibody were sequentially added. The reaction was developed using a tetramethylbenzidine (TMB) substrate and stopped with sulfuric acid. Absorbance was measured at 450 nm using a microplate reader, and results were expressed as units per gram of tissue (U g^−1 tissue). All samples were run in triplicate, and data were reported as mean ± SD.
The assay employed a double-antibody sandwich ELISA technique, where wells are pre-coated with MDA-specific monoclonal antibodies. Liver tissue homogenate samples were added to the wells and incubated to allow specific antigen–antibody binding. After washing, a biotin-labeled polyclonal detection antibody was added, followed by an avidin–HRP conjugate. The enzymatic reaction was developed using a TMB substrate, yielding a colorimetric change proportional to the MDA concentration. The reaction was stopped with acid, and absorbance was measured at 450 nm using a microplate reader. Results were expressed as nanomole per gram of tissue (nmol g^−1 tissue). All measurements were performed in triplicate, and results are presented as mean ± SD.
The assay employs a sandwich ELISA technique in which GSH in the samples binds to monoclonal antibodies pre-coated on microplate wells. Following this, an HRP-conjugated detection antibody was added, and the plate was incubated at 37 °C for 1 hour. After several washing steps to remove unbound reagents, a TMB substrate solution was added, allowing the enzymatic colorimetric reaction to develop. The reaction was stopped with an acidic solution, and absorbance was measured at 450 nm using a microplate reader. The resulting color intensity was directly proportional to the GSH concentration in the sample, and results were expressed as picogram per gram of tissue (pg g^−1 tissue). All samples were assayed in triplicate, and results are reported as mean ± SD.
The assay employed a sandwich ELISA format, in which SOD present in the tissue homogenates binds to a specific monoclonal antibody pre-coated on microplate wells. After sample incubation at 37 °C for 60 minutes, an HRP-conjugated secondary antibody was added. Following thorough washing, the enzymatic reaction was initiated with a TMB substrate and stopped with an acidic solution, resulting in a measurable color change. Absorbance was recorded at 450 nm using a microplate reader, and results were expressed as units per gram of tissue (U g^−1 tissue). All samples were run in triplicate, and data were reported as mean ± SD.
In data set [2] the test system is p53. Put plainly: qRT-PCR gene expression, p53. It counts as cell-based, human. The note with it: MCF-7, 7.653 μM, 24 h. On the procedure:
Untreated cells served as negative controls. RNA concentration and purity were verified spectrophotometrically prior to cDNA synthesis. Complementary DNA (cDNA) was synthesized from purified RNA using the RT^2 First Strand Kit (Qiagen, Valencia, CA, USA) following the supplied protocol. Quantitative real-time PCR (qRT-PCR) was performed on a Corbett Rotor-Gene 6000 system (Qiagen, USA) using the RT^2 SYBR® Green ROX™ FAST Master Mix (Qiagen). Each 25 μL reaction contained 12.5 μL of master mix, 1 μL of gene-specific primers (RT^2 qPCR Primer Assays, Qiagen), 1 μL of cDNA template, and 10.5 μL of RNase-free water. Gene-specific primers were selected using the PrimerBank database for BAX, BCL2, and TP53, along with GAPDH as the endogenous control (Table S3). Thermal cycling conditions were set as follows: initial enzyme activation at 95 °C for 10 minutes, followed by 40 cycles of denaturation at 95 °C for 15 seconds, and annealing at 60 °C for 30 seconds. Amplification specificity was confirmed by melting curve analysis. Gene expression levels were normalized to GAPDH mRNA as the internal reference, and relative quantification was performed using the ΔΔCt method. […] Statistical analysis was performed using GraphPad Prism software, with p < 0.05 considered statistically significant.[79]
Background: In qPCR the cycle at which signal appears reflects the starting amount.

The nature of data set [3]: Acute toxicity and lethal dose determination. It counts as in vivo, Swiss albino mice. The note with it: mice, i.p., 48 hour observation. The protocol:
In the first phase, animals were injected with low doses (1, 1.5, 2, 2.5, 3, 3.5, 4, 6, 8, and 10 mg kg^−1) and observed for 24 hours. Since no mortality was observed, a second set of animals was treated with higher doses (15, 25, 50, 75, 100, and 200 mg kg^−1), with continuous monitoring for 48 hours post-injection. Control animals received sterile saline solution only. All mice were carefully observed for signs of toxicity, behavioral changes (e.g., grooming, feeding, and locomotion), and mortality. The maximum tolerated dose (LD0) was defined as the highest dose at which no mortality or significant toxic symptoms were observed, while the lethal dose (LD100) was identified as the dose at which all animals succumbed. These values were used to establish safe dosing limits for subsequent in vivo pharmacological and biochemical experiments.

The subject of data set [4] is VEGFR-II. As to the kind of experiment: Serum VEGFR-II ELISA. (In an ELISA, binding on a coated surface is turned into a signal by an enzyme label.)
Procedure: All animals were maintained under conventional laboratory conditions, including a controlled temperature of 22 ± 2 °C and a 12 hour light/dark photoperiod, with continuous access to standard pellet chow and water. On day 11, following the final treatment, ascitic fluid was collected from the peritoneal cavity using heparinized syringes for EAC cell viability and count analysis. Blood samples were collected under light ether anesthesia via the retro-orbital venous plexus and centrifuged at 3000 rpm for 10 minutes. The resulting serum was separated and stored at −20 °C for biochemical analysis.
Serum VEGFR-2 levels were quantified using a rat VEGFR-2 ELISA kit (Cusabio®, China; Catalog No. CSB-E07348r), based on a quantitative sandwich enzyme immunoassay format. Samples were added to 96-well plates pre-coated with a monoclonal antibody specific for VEGFR-2 and incubated to enable antigen binding. After washing to remove unbound material, a biotin-conjugated detection antibody was added, followed by an avidin–HRP complex. The enzymatic reaction was developed using TMB substrate and stopped with an acidic solution. Absorbance was measured at 450 nm using a microplate reader. The VEGFR-2 concentrations in the samples were calculated using a standard curve fitted with a four-parameter logistic (4-PL) regression model and expressed in nanograms per milliliter (ng mL^−1).
The nature of data set [5]: MTT cytotoxicity assay, MCF-10A. It counts as cell-based, human. The note with it: human, MCF-10A non-tumorigenic breast epithelial cells, MTT, 48 h treatment, non-tumorigenic breast epithelial cells; read-out: IC50, cytotoxicity toward MCF-10A. On the procedure: (§1) The cytotoxic effects of the synthesized compounds were evaluated using the MTT assay. […] Following incubation, cells were treated with serial dilutions of the test compounds prepared in DMSO. The final concentration of DMSO in all wells, including controls, was maintained below 0.5% v/v to avoid solvent-related cytotoxicity. Doxorubicin was used as a positive control for comparison of antiproliferative activity. Following 48 hours of treatment, the culture medium was gently removed, and each well received 20 μL of MTT reagent (5 mg mL^−1 in phosphate-buffered saline). The plates were incubated at 37 °C for 4 hours to facilitate the enzymatic reduction of MTT into formazan by metabolically active cells. After incubation, the solution was discarded, and 100 μL of dimethyl sulfoxide was added. The absorbance of each well was measured at 570 nm using a microplate spectrophotometer. Cell viability was determined by comparing absorbance values to those of the untreated controls and expressed as a percentage. GraphPad Prism software was used to plot dose–response curves and calculate IC50 values.
Background: Tetrazolium assays rely on reduction of a dye to a coloured formazan, in cell work by metabolically active cells.

In data set [6] the test system is MCF-10A cells. Put plainly: MTT cytotoxicity assay, MCF-10A. It counts as cell-based, human. The protocol:
as §1

Data set [7] in a line: FRAP (ferric reducing antioxidant power) assay. The following applies: 37 °C, 60 min. On the procedure: The resulting Fe^2+ forms a colored complex with the FRAP chromogenic probe, which can be quantitatively measured. The reaction mixture was prepared by combining FRAP assay buffer, FRAP probe, and FeCl3 solution as per the manufacturer's protocol. […] Absorbance was measured at 594 nm using a microplate reader after incubation at 37 °C for 60 minutes. Antioxidant activity was determined by comparing the absorbance of the samples to a standard curve generated using known concentrations of the ferrous standard provided in the kit.

The subject of data set [8] is MCF-7 cells. Put plainly: MTT antiproliferative assay, MCF-7. The following applies: MTT, 48 h treatment, read-out: IC50, antiproliferative activity toward MCF-7. It counts as cell-based, human. On the procedure: (§2) The cytotoxic effects of the synthesized compounds were evaluated using the MTT assay. MCF-7, MDA-MB 231 (human breast cancer), and MCF-10A (non-tumorigenic breast epithelial) cells were seeded (1–3 × 10^4 cells per well) and incubated for 24 hours at 37 °C in a humidified atmosphere containing 5% CO2.[74] Following incubation, cells were treated with serial dilutions of the test compounds prepared in DMSO. The final concentration of DMSO in all wells, including controls, was maintained below 0.5% v/v to avoid solvent-related cytotoxicity. Doxorubicin was used as a positive control for comparison of antiproliferative activity. Following 48 hours of treatment, the culture medium was gently removed, and each well received 20 μL of MTT reagent (5 mg mL^−1 in phosphate-buffered saline). The plates were incubated at 37 °C for 4 hours to facilitate the enzymatic reduction of MTT into formazan by metabolically active cells. After incubation, the solution was discarded, and 100 μL of dimethyl sulfoxide was added. The absorbance of each well was measured at 570 nm using a microplate spectrophotometer. Cell viability was determined by comparing absorbance values to those of the untreated controls and expressed as a percentage. GraphPad Prism software was used to plot dose–response curves and calculate IC50 values.

In data set [9] the test system is MDA-MB 231 cells. As to the kind of experiment: MTT antiproliferative assay, MDA-MB 231. It counts as cell-based, human. The note with it: Homo sapiens, MDA-MB-231, 48 h, MTT, 48 h treatment; read-out: IC50, antiproliferative activity toward MDA-MB 231. On the procedure: as §2

Where “and” joins values, the source holds several entries; their conditions need not be identical. Identical values can stand only once. Like-named read-outs stand apart in the source and are kept apart here.

As a reminder, the IC50 is the concentration that gives 50% inhibition. Regarding `CCOC(=O)/C(C#N)=C/c1ccc(Oc2c(C)c3cc(Br)c(O)c(Br)c3[nH]c2=O)cc1` [Compound 7, ethyl (E)-2-cyano-3-(4-((6,8-dibromo-7-hydroxy-4-methyl-2-oxo-1,2-dihydroquinolin-3-yl)oxy)phenyl)acrylate], the “hepatic GSH” value was 34.76 ± 1.71 pg g^−1 tissue in [1] (EAC + compound 7 (10 mg kg^−1 i.p.), EAC control 12.50 ± 0.55) and 72.73 ± 1.37 pg g^−1 tissue in [1] (compound 7 control group, no EAC, untreated 61.4 ± 2.99). Further, the “hepatic SOD” value in data set [1] (EAC + compound 7, EAC control 9.85 ± 0.53) turned out to be 27.04 ± 0.70 U g^−1 tissue; in data set [1] (compound 7 control group, no EAC, untreated 77.56 ± 4.02), 77.05 ± 1.84 U g^−1 tissue. Also, the “hepatic CAT” value in data set [1] (EAC + compound 7, EAC control 11.71 ±1.42) turned out to be 23.12 ± 1.09 U g^−1 tissue; in data set [1] (compound 7 control group, no EAC, untreated 65.23 ± 1.97), 60.88 ± 2.66 U g^−1 tissue. Moreover, the “hepatic MDA” value in data set [1] (EAC + compound 7, EAC control 53.57 ± 9.6) was 17.04 ± 0.64 nmol g^−1 tissue; in [1] (compound 7 control group, no EAC), 10.77 ± 0.70 nmol g^−1 tissue. The “p53 expression relative to untreated control” value in data set [2] stood at 3.03 fold. The MTD at 48 h in data set [3] (Swiss albino, mouse, in vivo, ip, read-out: maximum tolerated dose (LD0)) worked out at 100 mg/kg. For the same compound, the “approximate lethal dose (LD100)” value in data set [3] was around 200 mg/kg. In addition, the “serum VEGFR-II” value in data set [4] (EAC + compound 7 (10 mg kg^−1 i.p.), EAC control 85.61 ± 2.47) worked out at 30.66 ± 1.31 ng/mL; in [4] (compound 7-only control group, no EAC, untreated 18.23 ± 0.81) it was 14.03 ± 0.45 ng/mL. The IC50 at 48 h in data set [5] was 52 µM. The “selectivity index toward breast cancer cells” value in data set [6] (MCF-10A vs MCF-7 / MDA-MB 231) lay in the range of 5.3 to 6.8. In addition, the IC50 in [6] (MTT, 48 h treatment, non-tumorigenic breast epithelial cells, read-out: IC50, cytotoxicity toward MCF-10A) was 52.1 ± 1.76 µM; in data set [7], 145 µM; in [8] (Homo sapiens, MCF7, 48 h), 7.65 µM; in data set [8], 7.65 µM and 7.6 µM; in data set [9], 9.7 ± 1.15 µM.

The record behind these values is publication PMC12461739, “Multi-targeted azacoumarin–cyanocinnamate hybrids induce G2/M arrest and apoptosis via tubulin, and COX-2/VEGFR modulation: insights from in vitro mechanistic basis and in vivo validation” (RSC Medicinal Chemistry, 2025).
